Molecules are shown by their SMILES.

The first test has as its system Influenza type B (cell culture adapted strain B/Lee/40, ATCC VR-1535). The test is described as follows: Influenza antiviral assay: inhibition of virus-induced cytopathic effects (CPE) in MDCK cells, XTT dye reduction. Type of test: cell-based. Particulars: Influenza B virus, MDCK, 96 h, strain B/Lee/40, MDCK cells, CPE inhibition at 4 days. On the technique in general: Damage to the host cells serves as the signal in cytopathic effect assays.
The term EC50 denotes the midpoint of the concentration-response curve. Low values mean greater potency, high ones weaker potency. `CC1N(CC2CC2)C(=O)c2c(O)c(=O)ccn2N1C12c3ccccc3CC1Cc1c2ccc(F)c1F` (stereo not shown) [Compound A128] showed an EC50 of 125 to 250 nM.

Turning to `CC(C)N1CN(C23c4ccccc4CC2(C)Cc2c3ccc(F)c2F)n2ccc(=O)c(O)c2C1=O` (stereo not shown) [Compound A167], the EC50 is less than 125 nM.

In turn, `CC1N(C)C(=O)c2c(O)c(=O)ccn2N1C12c3ccccc3CC1Cc1ccccc12` (stereo not shown) [Compound A158] came in with an EC50 of 125 to 250 nM.

With `CCCN1C(=O)c2c(O)c(=O)ccn2N(C23c4ccccc4CC2Cc2c(Cl)cccc23)C1C` (stereo not shown) [Compound A132], the concentration for a half-maximal effect (EC50) fell in the range of 250 to 375 nM.

The molecule `CC1N(C2CCC2)C(=O)c2c(O)c(=O)ccn2N1C12c3ccccc3CC1Cc1c(F)cccc12` (stereo not shown) [Compound A141] came in with an EC50 of 250 to 375 nM.

For the molecule `CN1CN(C23c4ccc(F)cc4CC2Cc2cc(F)ccc23)n2ccc(=O)c(O)c2C1=O` (stereo not shown) [Compound A3, 1-(2,7-Difluoro-9a,10-dihydro-9H-indeno[1,2-a]inden-4b-yl)-5-hydroxy-3-methyl-2,3-dihydro-1H-pyrido[2,1-f][1,2,4]triazine-4,6-dione], the EC50 is greater than 500 nM.

In turn, `CCN1CN(C23c4ccccc4CC2(C)Cc2ccccc23)n2ccc(=O)c(O)c2C1=O` (stereo not shown) [Compound A147] came in with an EC50 of 125 to 250 nM.

For `CCCN1CN(C23c4ccccc4CC2Cc2c3ccc(F)c2F)n2ccc(=O)c(O)c2C1=O` (stereo not shown) [Compound A148], the EC50 was in the range of 125 to 250 nM.

`CCOC12Cc3ccccc3C1(N1CN(C)C(=O)c3c(O)c(=O)ccn31)c1ccccc1C2` (stereo not shown) [Compound A57] came in with a 50% effective concentration (EC50) of less than 125 nM.

Take `CCN1CN(C23c4ccccc4CC2Cc2ccc(F)cc23)n2ccc(=O)c(O)c2C1=O` (stereo not shown) [Compound A52]: the EC50 was less than 125 nM.

In the case of `O=C1c2c(O)c(=O)ccn2N(C23c4ccccc4CC2Cc2c3ccc(F)c2F)CN1CCCF` (stereo not shown) [Compound A80], the EC50 was less than 125 nM.

`O=C1c2c(O)c(=O)ccn2N(C23c4ccccc4CC2Cc2c3ccc(F)c2F)CN1Cc1ccc(F)cc1` (stereo not shown) [Compound A17, 1-(1,2-Difluoro-9a,10-dihydro-9H-indeno[1,2-a]inden-4b-yl)-3-(4-fluoro-benzyl)-5-hydroxy-2,3-dihydro-1H-pyrido[2,1-f][1,2,4]triazine-4,6-dione] displayed an EC50 of 125 to 250 nM.

Molecule `O=C1c2c(O)c(=O)ccn2N(C23c4ccccc4CC2Cc2ccccc23)CN1CCOc1ccccc1` (stereo not shown) [Compound A7, 1-(9a,10-Dihydro-9H-indeno[1,2-a]inden-4b-yl)-5-hydroxy-3-(2-phenoxy-ethyl)-2,3-dihydro-1H-pyrido[2,1-t][1,2,4]triazine-4,6-dione] yielded an EC50 of less than 125 nM.

Take `CCN1CN(C23c4ccccc4CC2(C)Cc2c3ccc(F)c2F)n2ccc(=O)c(O)c2C1=O` (stereo not shown) [Compound A164]: the EC50 was less than 125 nM.

`CCN1CN(C23c4cccc(C)c4CC2Cc2c(F)cccc23)n2ccc(=O)c(O)c2C1=O` (stereo not shown) [Compound A66] returned an EC50 of less than 125 nM.

`CCCN1CN(C23c4cccc(F)c4CC2Cc2c(F)cccc23)n2ccc(=O)c(O)c2C1=O` (stereo not shown) [Compound A153] showed an EC50 of 125 to 250 nM.

Regarding `O=C1c2c(O)c(=O)ccn2N(C23c4ccccc4CC2Cc2cc(F)c(F)cc23)CN1Cc1ccc(F)cc1` (stereo not shown) [Compound A23, 1-(2,3-Difluoro-9a,10-dihydro-9H-indeno[1,2-a]inden-4b-yl)-3-(4-fluoro-benzyl)-5-hydroxy-2,3-dihydro-1H-pyrido[2,1-f][1,2,4]triazine-4,6-dione], the EC50 lay in the range of 250 to 375 nM.

`O=C1c2c(O)c(=O)ccn2N(C23c4cccc(F)c4CC2Cc2c(F)cccc23)CN1CC1CCCCO1` (stereo not shown) [Compound A130] came in with an EC50 of 125 to 250 nM.

On to `CN1CN(C23c4ccccc4CC2Cc2cc(F)c(F)cc23)n2ccc(=O)c(O)c2C1=O` (stereo not shown) [Compound A19, 1-(2,3-difluoro-9a,10-dihydroindeno[1,2-a]inden-4b(9H)-yl)-5-hydroxy-3-methyl-2,3-dihydro-1H-pyrido[2,1-f][1,2,4]triazine-4,6-dione], for which the EC50 lay within 250 to 375 nM.

As for `CN1CN(C23c4cccc(F)c4CC2(C)Cc2c(F)cccc23)n2ccc(=O)c(O)c2C1=O` (stereo not shown) [Compound A54], the EC50 was less than 125 nM.

`O=C1c2c(O)c(=O)ccn2N(C23c4ccccc4CC2Cc2c(F)cccc23)CN1CCc1ccccc1` (stereo not shown) [Compound A87] registered a concentration giving a half-maximal response (EC50) of less than 125 nM.

Consider `CC(C)CN1CN(C23c4ccccc4CC2Cc2c3ccc(F)c2F)n2ccc(=O)c(O)c2C1=O` (stereo not shown) [Compound A149], for which the EC50 is less than 125 nM.

The molecule `O=C1c2c(O)c(=O)ccn2N(C23c4ccccc4CC2Cc2c(F)cccc23)CN1CC(F)F` (stereo not shown) [Compound A83] yielded an EC50 of less than 125 nM.

For the molecule `COCCN1C(=O)c2c(O)c(=O)ccn2N(C23c4ccccc4CC2Cc2c(F)cccc23)C1C` (stereo not shown) [Compound A124], the EC50 was in the range of 375 to 500 nM.

`O=C1c2c(O)c(=O)ccn2N(C23c4ccccc4CC2Cc2ccccc23)CN1Cc1ccccc1` (stereo not shown) [Compound A4, 3-Benzyl-1-(9a,10-dihydro-9H-indeno[1,2-a]inden-4b-yl)-5-hydroxy-2,3-dihydro-1H-pyrido[2,1-f][1,2,4]triazine-4,6-dione] had an EC50 greater than 500 nM.

`CC(C)CN1C(=O)c2c(O)c(=O)ccn2N(C23c4ccccc4CC2Cc2c3ccc(F)c2F)C1C` (stereo not shown) [Compound A127] showed an EC50 of 250 to 375 nM.

`O=C1c2c(O)c(=O)ccn2N(C23c4cccc(F)c4CC2Cc2c(F)cccc23)CN1CCc1ccccc1` (stereo not shown) [Compound A86] displayed an EC50 of less than 125 nM.

Turning to `CCN1CN(C23c4ccccc4CC2Cc2c3ccc(C)c2F)n2ccc(=O)c(O)c2C1=O` (stereo not shown) [Compound A98], the EC50 is less than 125 nM.

Take `O=C1c2c(O)c(=O)ccn2N(C23c4ccccc4CC2Cc2c3ccc(F)c2F)CN1CC1CCCC1` (stereo not shown) [Compound A100]: the EC50 fell in the range of 250 to 375 nM.

In turn, `CCN1CN(C23c4ccccc4CC2Cc2c3ccc(F)c2Cl)n2ccc(=O)c(O)c2C1=O` (stereo not shown) [Compound A47] gave an EC50 of 125 to 250 nM.

`O=C1c2c(O)c(=O)ccn2N(C23c4ccccc4CC2Cc2c(Cl)cccc23)CN1CCF` (stereo not shown) [Compound A111] came in with an EC50 of 125 to 250 nM.

For `CN1CN(C23c4ccccc4CC2Cc2c3ccc(F)c2Cl)n2ccc(=O)c(O)c2C1=O` (stereo not shown) [Compound A46, 1-(1-Chloro-2-fluoro-9a,10-dihydroindeno[1,2-a]inden-4b(9H)-yl)-5-hydroxy-3-methyl-2,3-dihydro-1H-pyrido[2,1-f][1,2,4]triazine-4,6-dione], the EC50 is less than 125 nM.

`CC(C)N1CN(C23c4cccc(F)c4CC2(C)Cc2c(F)cccc23)n2ccc(=O)c(O)c2C1=O` (stereo not shown) [Compound A89] came in with an EC50 of 375 to 500 nM.

On to `O=C1c2c(O)c(=O)ccn2N(C23c4ccccc4CC2Cc2c(F)cccc23)CN1CC1CCCCO1` (stereo not shown) [Compound A133], for which the concentration giving a half-maximal response (EC50) is 125 to 250 nM.

In turn, `CC1N(C)C(=O)c2c(O)c(=O)ccn2N1C12c3ccccc3CC1Cc1c(F)cccc12` (stereo not shown) [Compound A60] returned an EC50 of less than 125 nM.

Molecule `O=C1c2c(O)c(=O)ccn2N(C23c4ccccc4CC2Cc2c3ccc(F)c2F)CN1C1CCC1` (stereo not shown) [Compound A92, 3-Cyclobutyl-1-(1,2-difluoro-9a,10-dihydroindeno[1,2-a]inden-4b(9H)-yl)-5-hydroxy-2,3-dihydro-1H-pyrido[2,1-f][1,2,4]triazine-4,6-dione] registered a 50% effective concentration (EC50) of 250 to 375 nM.

`O=C1c2c(O)c(=O)ccn2N(C23c4ccccc4CC2Cc2c(Cl)cccc23)CN1C1CCC1` (stereo not shown) [Compound A103] had an EC50 of 125 to 250 nM.

The molecule `COCCN1CN(C23c4ccccc4CC2Cc2c(F)cccc23)n2ccc(=O)c(O)c2C1=O` (stereo not shown) [Compound A69] gave an EC50 of less than 125 nM.

Turning to `COCCN1C(=O)c2c(O)c(=O)ccn2N(C23c4ccccc4CC2Cc2c(Cl)cccc23)C1C` (stereo not shown) [Compound A125], the EC50 lay in the range of 125 to 250 nM.

On to `O=C1c2c(O)c(=O)ccn2N(C23c4ccccc4CC2Cc2c3ccc(F)c2F)CN1CC1CCOCC1` (stereo not shown) [Compound A15, 1-(1,2-Difluoro-9a,10-dihydro-9H-indeno[1,2-a]inden-4b-yl)-5-hydroxy-3-(tetrahydro-pyran-4-ylmethyl)-2,3-dihydro-1H-pyrido[2,1-f][1,2,4]triazine-4,6-dione], for which the EC50 was less than 125 nM.

On to `CCN1CN(C23c4ccccc4CC2Cc2c(Cl)cccc23)n2ccc(=O)c(O)c2C1=O` (stereo not shown) [Compound A55], for which the EC50 is less than 125 nM.

With `CC1N(CCF)C(=O)c2c(O)c(=O)ccn2N1C12c3ccccc3CC1Cc1c(Cl)cccc12` (stereo not shown) [Compound A115], the EC50 was 250 to 375 nM.

Take `CCN1CN(C23c4ccccc4CC2Cc2c3ccc(F)c2C)n2ccc(=O)c(O)c2C1=O` (stereo not shown) [Compound A77]: the EC50 was in the range of 125 to 250 nM.

As to `COCCN1CN(C23c4cccc(F)c4CC2Cc2c(F)cccc23)n2ccc(=O)c(O)c2C1=O` (stereo not shown) [Compound A49], the EC50 is less than 125 nM.

Consider `CN1CN(C23c4cc(F)ccc4CC2Cc2c(Cl)cccc23)n2ccc(=O)c(O)c2C1=O` (stereo not shown) [Compound A96], for which the EC50 was less than 125 nM.

As for `O=C1c2c(O)c(=O)ccn2N(C23c4ccccc4CC2Cc2cc(F)c(F)cc23)CN1CCc1cccc(F)c1` (stereo not shown) [Compound A28, 1-(2,3-difluoro-9a,10-dihydroindeno[1,2-a]inden-4b(9H)-yl)-3-(3-fluorophenethyl)-5-hydroxy-2,3-dihydro-1H-pyrido[2,1-f][1,2,4]triazine-4,6-dione], the EC50 lay in the range of 250 to 375 nM.

In the case of `CN1CN(C23c4ccccc4CC2(C(F)F)Cc2ccccc23)n2ccc(=O)c(O)c2C1=O` (stereo not shown) [Compound A63], the EC50 is less than 125 nM.

The molecule `O=C1c2c(O)c(=O)ccn2N(C23c4ccccc4CC2Cc2c(Cl)cccc23)CN1C1CC1` (stereo not shown) [Compound A93] gave an EC50 of 125 to 250 nM.

`CC(CCN1CN(C23c4ccccc4CC2Cc2c3ccc(F)c2F)n2ccc(=O)c(O)c2C1=O)c1ccccc1` (stereo not shown) [Compound A91] registered an EC50 of 125 to 250 nM.

Staying with this test, now noted: strain B/Lee/40, MDCK cells, CPE inhibition at 4 days.
Take `CC(CCN1CN(C23c4ccccc4CC2Cc2ccccc23)n2ccc(=O)c(O)c2C1=O)c1ccccc1` (stereo not shown) [Compound A32, 1-(9a,10-dihydroindeno[1,2-a]inden-4b(9H)-yl)-5-hydroxy-3-(3-phenylbutyl)-2,3-dihydro-1H-pyrido[2,1-f][1,2,4]triazine-4,6-dione]: the EC50 was less than 125 nM.

Consider `CCN1CN(C23c4cccc(F)c4CC2Cc2c(F)cccc23)n2ccc(=O)c(O)c2C1=O` (stereo not shown) [Compound A43], for which the EC50 was less than 125 nM.

`CN1CN(C23c4ccccc4CC2Cc2c3ccc(F)c2Cl)n2ccc(=O)c(O)c2C1=O` (stereo not shown) [Compound A90] returned an EC50 of less than 125 nM.

For the origin of these results see patent US12037333B2, “Pyridopyrazine and pyridotriazine inhibitors of influenza virus replication” (priority 2018, dated 2024).
